# Laboratory results taken from patent US20170354655A1, “TLR INHIBITOR AND BRUTON'S TYROSINE KINASE INHIBITOR COMBINATIONS” (Pharmacyclics LLC, priority 2014, published 2017).
# Assays:
# [1] = system: patients who have the activated B-cell like (ABC) subtype of DLBCL; conditions: cited from earlier work
# TMD8 cells = test: Combined drug treatment with 5Z-7-Oxozeaenol and ibrutinib, CellTiter-Glo cell viability in TMD8 cell line; type: cell-based
# Protocol: A 40 μL aliquot of CellTiter-Glo® reagent was added directly into each well of the 96-W plate. The plate was then shaken on a Shaker (Labsystem Wellmix) at speed 5 for 10-20 min at room temperature. Next, about 100 μL of the mixed medium was transferred to a white, non-transparent, flat bottom 96-W plate for assaying. A Flexstation 3 luminometer was used for detecting and measuring the luminescent signals. Measurements were taken at room temperature.
# The luminescent measurements were subsequently processed and analyzed using CalcuSyn (CI) and Chalice Analyzer (synergy score). CalcuSyn performs the multiple drug dose-effect calculations using the Median Effect methods described by T-C Chou and P. Talalay in “Analysis of combined drug effects: a new look at a very old problem,” Trends Pharmacol. Sci. 4:450-454 (1983). In general, the resulting combination index (CI) obtained from the Chou-Talalay method defines quantitatively for additive effect (CI=1), synergism (CI<1), and antagonism (CI>1) in drug combinations. Chalice Analyzer utilizes the method described in Lehar et al. “Synergistic drug combinations improve therapeutic selectivity,” Nat. Biotechnol. 27(7):659-666 (2009). Synergy scores is higher than 1 indicate synergy between two compounds, with higher synergy scores indicating better synergy.
# 200 μl of TMD8 wt cells (1.0×10^4 cells) at 5.0×10^4 cells/ml was plated into each well of a 96-well plate. The cells were grown in RPMI-10P medium.
# The TAK1 inhibitor used for this experiment was 5Z-7-oxozeaenol. […] The stock solution for chloroquine diphosphate was prepared at 20 mM concentration. The CellTiter-Glo® assay follow the protocols of Example 1.
structure (smiles),measurement,setting,value
"C=CC(=O)N1CCC[C@@H](n2nc(-c3ccc(Oc4ccccc4)cc3)c3c(N)ncnc32)C1 [ibrutinib, 1-((R)-3-(4-amino-3-(4-phenoxyphenyl)-1H-pyrazolo[3,4-d]pyrimidin-1-yl)piperidin-1-yl)prop-2-en-1-one]",overall response rate,[1],41%
same,overall survival,[1],9.7 month
same,luminescent signal (CellTiter-Glo),"TMD8 cells; 5Z-7-OXO 0 nM, ibrutinib 0.00026 nM",268264
same,luminescent signal (CellTiter-Glo),"TMD8 cells; 5Z-7-OXO 0 nM, ibrutinib 0.00128 nM",245879
same,luminescent signal (CellTiter-Glo),"TMD8 cells; 5Z-7-OXO 0 nM, ibrutinib 0.0064 nM",240905
same,luminescent signal (CellTiter-Glo),"TMD8 cells; 5Z-7-OXO 0 nM, ibrutinib 0.032 nM",249480
same,luminescent signal (CellTiter-Glo),"TMD8 cells; 5Z-7-OXO 0 nM, ibrutinib 0.16 nM",190532
same,luminescent signal (CellTiter-Glo),"TMD8 cells; 5Z-7-OXO 0 nM, ibrutinib 0.8 nM",126175
same,luminescent signal (CellTiter-Glo),"TMD8 cells; 5Z-7-OXO 0 nM, ibrutinib 4 nM",96203.8
same,luminescent signal (CellTiter-Glo),"TMD8 cells; 5Z-7-OXO 0 nM, ibrutinib 20 nM",90633.1
same,luminescent signal (CellTiter-Glo),"TMD8 cells; 5Z-7-OXO 0 nM, ibrutinib 100 nM",94612.5
"COc1cc(O)c2c(c1)/C=C/C[C@H](O)[C@H](O)C(=O)/C=C\C[C@H](C)OC2=O [5Z-7-Oxozeaenol, 5Z-7-oxozeaenol]",luminescent signal (CellTiter-Glo),"TMD8 cells; 5Z-7-OXO 1 nM, ibrutinib 0 nM",259932
same,luminescent signal (CellTiter-Glo),"TMD8 cells; 5Z-7-OXO 1 nM, ibrutinib 0.00026 nM",249856
same,luminescent signal (CellTiter-Glo),"TMD8 cells; 5Z-7-OXO 1 nM, ibrutinib 0.00128 nM",259290
same,luminescent signal (CellTiter-Glo),"TMD8 cells; 5Z-7-OXO 1 nM, ibrutinib 0.0064 nM",236187
same,luminescent signal (CellTiter-Glo),"TMD8 cells; 5Z-7-OXO 1 nM, ibrutinib 0.032 nM",249545
same,luminescent signal (CellTiter-Glo),"TMD8 cells; 5Z-7-OXO 1 nM, ibrutinib 0.16 nM",181569
same,luminescent signal (CellTiter-Glo),"TMD8 cells; 5Z-7-OXO 1 nM, ibrutinib 0.8 nM",127363
same,luminescent signal (CellTiter-Glo),"TMD8 cells; 5Z-7-OXO 1 nM, ibrutinib 4 nM",98378.9
same,luminescent signal (CellTiter-Glo),"TMD8 cells; 5Z-7-OXO 1 nM, ibrutinib 20 nM",98536.7
same,luminescent signal (CellTiter-Glo),"TMD8 cells; 5Z-7-OXO 1 nM, ibrutinib 100 nM",78834.1
same,luminescent signal (CellTiter-Glo),"TMD8 cells; 5Z-7-OXO 10 nM, ibrutinib 0 nM",277804
same,luminescent signal (CellTiter-Glo),"TMD8 cells; 5Z-7-OXO 10 nM, ibrutinib 0.00026 nM",260616
same,luminescent signal (CellTiter-Glo),"TMD8 cells; 5Z-7-OXO 10 nM, ibrutinib 0.00128 nM",241442
same,luminescent signal (CellTiter-Glo),"TMD8 cells; 5Z-7-OXO 10 nM, ibrutinib 0.0064 nM",223023
same,luminescent signal (CellTiter-Glo),"TMD8 cells; 5Z-7-OXO 10 nM, ibrutinib 0.032 nM",222768
same,luminescent signal (CellTiter-Glo),"TMD8 cells; 5Z-7-OXO 10 nM, ibrutinib 0.16 nM",175048
same,luminescent signal (CellTiter-Glo),"TMD8 cells; 5Z-7-OXO 10 nM, ibrutinib 0.8 nM",120925
same,luminescent signal (CellTiter-Glo),"TMD8 cells; 5Z-7-OXO 10 nM, ibrutinib 4 nM",96219.6
same,luminescent signal (CellTiter-Glo),"TMD8 cells; 5Z-7-OXO 10 nM, ibrutinib 20 nM",86196
same,luminescent signal (CellTiter-Glo),"TMD8 cells; 5Z-7-OXO 10 nM, ibrutinib 100 nM",86511.6
same,luminescent signal (CellTiter-Glo),"TMD8 cells; 5Z-7-OXO 100 nM, ibrutinib 0 nM",167090
same,luminescent signal (CellTiter-Glo),"TMD8 cells; 5Z-7-OXO 100 nM, ibrutinib 0.00026 nM",168173
same,luminescent signal (CellTiter-Glo),"TMD8 cells; 5Z-7-OXO 100 nM, ibrutinib 0.00128 nM",147600
same,luminescent signal (CellTiter-Glo),"TMD8 cells; 5Z-7-OXO 100 nM, ibrutinib 0.0064 nM",151829
same,luminescent signal (CellTiter-Glo),"TMD8 cells; 5Z-7-OXO 100 nM, ibrutinib 0.032 nM",130054
same,luminescent signal (CellTiter-Glo),"TMD8 cells; 5Z-7-OXO 100 nM, ibrutinib 0.16 nM",98728.8
same,luminescent signal (CellTiter-Glo),"TMD8 cells; 5Z-7-OXO 100 nM, ibrutinib 0.8 nM",54512.9
same,luminescent signal (CellTiter-Glo),"TMD8 cells; 5Z-7-OXO 100 nM, ibrutinib 4 nM",42472
same,luminescent signal (CellTiter-Glo),"TMD8 cells; 5Z-7-OXO 100 nM, ibrutinib 20 nM",40678.2
same,luminescent signal (CellTiter-Glo),"TMD8 cells; 5Z-7-OXO 100 nM, ibrutinib 100 nM",34016
same,luminescent signal (CellTiter-Glo),"TMD8 cells; 5Z-7-OXO 1000 nM, ibrutinib 0 nM",27259.1
same,luminescent signal (CellTiter-Glo),"TMD8 cells; 5Z-7-OXO 1000 nM, ibrutinib 0.00026 nM",29868.2
same,luminescent signal (CellTiter-Glo),"TMD8 cells; 5Z-7-OXO 1000 nM, ibrutinib 0.00128 nM",25315.4
same,luminescent signal (CellTiter-Glo),"TMD8 cells; 5Z-7-OXO 1000 nM, ibrutinib 0.0064 nM",23976.6
same,luminescent signal (CellTiter-Glo),"TMD8 cells; 5Z-7-OXO 1000 nM, ibrutinib 0.032 nM",20081.4
same,luminescent signal (CellTiter-Glo),"TMD8 cells; 5Z-7-OXO 1000 nM, ibrutinib 0.16 nM",15015.6
same,luminescent signal (CellTiter-Glo),"TMD8 cells; 5Z-7-OXO 1000 nM, ibrutinib 0.8 nM",12627.5
same,luminescent signal (CellTiter-Glo),"TMD8 cells; 5Z-7-OXO 1000 nM, ibrutinib 4 nM",13032.5
same,luminescent signal (CellTiter-Glo),"TMD8 cells; 5Z-7-OXO 1000 nM, ibrutinib 20 nM",13048.3
same,luminescent signal (CellTiter-Glo),"TMD8 cells; 5Z-7-OXO 1000 nM, ibrutinib 100 nM",12982.5
same,luminescent signal (CellTiter-Glo),"TMD8 cells; 5Z-7-OXO 10000 nM, ibrutinib 0 nM",4563.35
same,luminescent signal (CellTiter-Glo),"TMD8 cells; 5Z-7-OXO 10000 nM, ibrutinib 0.00026 nM",4729.05
same,luminescent signal (CellTiter-Glo),"TMD8 cells; 5Z-7-OXO 10000 nM, ibrutinib 0.00128 nM",4731.68
same,luminescent signal (CellTiter-Glo),"TMD8 cells; 5Z-7-OXO 10000 nM, ibrutinib 0.0064 nM",4700.12
same,luminescent signal (CellTiter-Glo),"TMD8 cells; 5Z-7-OXO 10000 nM, ibrutinib 0.032 nM",5299.8
same,luminescent signal (CellTiter-Glo),"TMD8 cells; 5Z-7-OXO 10000 nM, ibrutinib 0.16 nM",5307.69
same,luminescent signal (CellTiter-Glo),"TMD8 cells; 5Z-7-OXO 10000 nM, ibrutinib 0.8 nM",5441.83
same,luminescent signal (CellTiter-Glo),"TMD8 cells; 5Z-7-OXO 10000 nM, ibrutinib 4 nM",5749.55
same,luminescent signal (CellTiter-Glo),"TMD8 cells; 5Z-7-OXO 10000 nM, ibrutinib 20 nM",5957.34
same,luminescent signal (CellTiter-Glo),"TMD8 cells; 5Z-7-OXO 10000 nM, ibrutinib 100 nM",6244.03
same,CI value for the 5Z-7-Oxozeaenol/ibrutinib combination,TMD8 cells; TMD8 cells,0.17
same,synergy score for the 5Z-7-Oxozeaenol/ibrutinib combination,TMD8 cells; TMD8 cells,4.63
same,synergy with ibrutinib (in words),TMD8 cells; TMD8 cells,Synergy was observed
